# PubChem BioAssay AID1508591
# Conditions: rat; liver microsomes; pH 7.4; 15.0 min; 1.0 µM
row,Structure (SMILES),half-life
1,c1cc(-c2cc(-c3ccncc3)c3cncn3c2)c2[nH]ncc2c1,10.1 min
2,COc1cccc(NC(=O)c2cccc3c(=O)c4c([nH]c23)CCCC4)c1,16.3 min
3,Nc1ccc(S(=O)(=O)Nc2cnccc2C(=O)Nc2nc(-c3ccccc3)cs2)cc1,25 min
4,Oc1ccc(-c2nc(C3CC3)nc3c2CCN(Cc2ccc(F)cc2)CC3)cc1,2.02 min
